Measurements published in US11479528B2, “Heat shock protein 90 inhibitors” (TAIPEI MEDICAL UNIVERSITY, priority 2017, dated 2022).
Like-named read-outs stand apart in the source and are kept apart here.

Key:
[1] = system: lung A549; assay: Sulforhodamine B (SRB) assay, lung A549; assay type: cell-based, human
Protocol: Human cancer cells were purchased from the American Type Culture Collection (Manassas, Va., USA).
Cells were seeded in 96-well plates in medium with 5% fetal bovine serum. […] Unbound sulforhodamine B was washed out by 1% acetic acid and sulforhodamine B-bound cells were solubilized with 10 mmol/L Trizma base. […] Using the following absorbance measurements, such as time zero (T0), control growth (C), and cell growth in the presence of the drug (Tx), the percentage growth was calculated at each of the compound concentrations levels. Percentage growth inhibition was calculated as […].

[2] = system: colorectal HCT116; assay: Sulforhodamine B (SRB) assay, colorectal HCT116; assay type: cell-based; conditions: Homo sapiens, HCT-116, SRB
Protocol: (§1) Human cancer cells were purchased from the American Type Culture Collection (Manassas, Va., USA). These cell lines were cultured in RPMI 1640 medium or DMEM supplemented with 10% FBS (v/v) and pencillin (100 U/mL)/streptomycin (100 ug/mL)/amphotericin B (0.25 ug/mL). Cultures were maintained at 37° C. in a humidified atmosphere of 5% CO2/95% air.
(§2) Cells were seeded in 96-well plates in medium with 5% fetal bovine serum. After 24 h, cells were fixed with 10% trichloroacetic acid to represent cell population at the time of drug addition (T0). After additional incubation of DMSO or drugs for 48 h, cells were fixed with 10% trichloroacetic acid and sulforhodamine B at 0.4% (w/v) in 1% acetic acid was added to stain cells. Unbound sulforhodamine B was washed out by 1% acetic acid and sulforhodamine B-bound cells were solubilized with 10 mmol/L Trizma base. The absorbance was read at a wavelength of 515 nm. Using the following absorbance measurements, such as time zero (T0), control growth (C), and cell growth in the presence of the drug (Tx), the percentage growth was calculated at each of the compound concentrations levels. Percentage growth inhibition was calculated as […].

[3] = system: prostate PC3; assay: Sulforhodamine B (SRB) assay, prostate PC3; assay type: cell-based; conditions: Homo sapiens, Table 1, 48 h
Protocol: as §1, §2

[4] = Homo sapiens, A549, 48 h, read-out: GI50 Lung A549
[5] = Table 1, 48 h, read-out: GI50 Colorectal HCT116
[6] = Homo sapiens, A549, Table 1, SRB, 48 h, read-out: GI50 Lung A549

| Structure (SMILES) | GI50 [1, 4] | GI50 [1, 6] | GI50 [3] | also measured |
| --- | --- | --- | --- | --- |
| CC(C)c1cc(C(=O)N(c2cccc3ccn(C)c23)C(C)C)c(O)cc1O [Compound 22e, 2,4-dihydroxy-N,5-diisopropyl-N-(1-methyl-1H-indol-7-yl)benzamide] | > 10000 nM |  |  |  |
| CCN(C(=O)c1cc(C(C)C)c(O)cc1O)c1cnc2c(ccn2C)c1 [Compound 24d, N-ethyl-2,4-dihydroxy-5-isopropyl-N-(1-methyl-1H-pyrrolo[2,3-b]pyridin-5-yl)benzamide] |  | 230 ± 30 nM |  | GI50 [2, 5]: 440 ± 190 nM |
| CC(C)c1cc(C(=O)Nc2ccc3ccn(C)c3c2)c(O)cc1O [Compound 21b, 2,4-dihydroxy-5-isopropyl-N-(1-methyl-1H-indol-6-yl)benzamide] | > 10000 nM |  |  |  |
| CC(C)c1cc(C(=O)N(C)c2cnc3c(ccn3C)c2)c(O)cc1O [Compound 24c, 2,4-dihydroxy-5-isopropyl-N-methyl-N-(1-methyl-1H-pyrrolo[2,3-b]pyridin-5-yl)benzamide] |  | 270 ± 30 nM |  | GI50 [2, 5]: 710 ± 80 nM |
| CCN(C(=O)c1cc(C(C)C)c(O)cc1O)c1cccnc1OCc1ccccc1 [Compound 34b, N-(2-(benzyloxy)pyridin-3-yl)-N-ethyl-2,4-dihydroxy-5-isopropylbenzamide] |  | 210 ± 10 nM |  |  |
| Cc1cc(NC(=O)c2cc(C(C)C)c(O)cc2O)c2ccccc2n1 [Compound 32a, 2,4-dihydroxy-5-isopropyl-N-(2-methylquinolin-4-yl)benzamide] |  | > 10000 nM | > 10000 nM |  |
| CC(C)c1cc(C(=O)N(C)c2ccc3c(c2)CCN3)c(O)cc1O [Compound 23b, 2,4-dihydroxy-N-(indolin-5-yl)-5-isopropyl-N-methylbenzamide] |  | 2820 ± 30 nM |  | GI50 [2, 5]: 5530 ± 380 nM |
| CC(C)c1cc(C(=O)Nc2cccc3ncccc23)c(O)cc1O [Compound 29a, 2,4-dihydroxy-5-isopropyl-N-(quinolin-5-yl)benzamide] |  | > 10000 nM | > 10000 nM |  |
| CC(C)c1cc(C(=O)N(c2cnc3c(ccn3C)c2)C(C)C)c(O)cc1O [Compound 24f, 2,4-dihydroxy-N, 5-diisopropyl-N-(1-methyl-1H-pyrrolo[2,3-b]pyridin-5-yl)benzamide] |  | 2060 ± 120 nM |  | GI50 [2, 5]: 3140 ± 870 nM |
| CC(C)c1cc(C(=O)Nc2cnc3ccccc3c2)c(O)cc1O [Compound 28a, 2,4-dihydroxy-5-isopropyl-N-(quinolin-3-yl)benzamide] |  | > 10000 nM | > 10000 nM |  |
| CC(C)c1cc(C(=O)Nc2ccc3cc[nH]c3c2)c(O)cc1O [Compound 21a, 2,4-dihydroxy-N-(1H-indol-6-yl)-5-isopropylbenzamide] | 300 ± 30 nM |  |  |  |
| C=CCNC1=C2C[C@@H](C)C[C@H](OC)[C@H](O)[C@@H](C)/C=C(\C)[C@H](OC(N)=O)[C@@H](OC)/C=C\C=C(/C)C(=O)NC(=CC1=O)C2=O [Compound 17-AAG, 17-allylamino-17-desmethoxygeldanamycin, reference compound] |  |  |  | GI50 ([2]; Table 2, read-out: HCT116 GI50): 340 ± 60 nM; GI50 ([1]; Homo sapiens, A549, Table 2, SRB, read-out: A549 GI50): 80 ± 10 nM |
| CCN(C(=O)c1cc(C(C)C)c(O)cc1O)c1ccc2ncccc2c1 [Compound 30c, N-ethyl-2,4-dihydroxy-5-isopropyl-N-(quinolin-6-yl)benzamide] |  | 510 ± 90 nM | 460 ± 130 nM |  |
| CCN(C(=O)c1cc(C(C)C)c(O)cc1O)c1cccnc1C [Compound 34a, N-ethyl-2,4-dihydroxy-5-isopropyl-N-(2-methylpyridin-3-yl)benzamide] |  |  |  | GI50 ([1]; Table 1, SRB, 48 h, read-out: GI50 Lung A549): > 10000 nM |
| CC(C)c1cc(C(=O)Nc2cccc3cccnc23)c(O)cc1O [Compound 31a, 2,4-dihydroxy-5-isopropyl-N-(quinolin-8-yl)benzamide] |  | > 10000 nM | > 10000 nM |  |
| CC(C)c1cc(C(=O)Nc2ccc3ncccc3c2)c(O)cc1O [Compound 30a, 2,4-dihydroxy-5-isopropyl-N-(quinolin-6-yl)benzamide] |  | > 10000 nM | > 10000 nM |  |
| CC(C)c1cc(C(=O)N(C)c2cnc3ccccc3c2)c(O)cc1O [Compound 28b, 2,4-dihydroxy-5-isopropyl-N-methyl-N-(quinolin-3-yl)benzamide] |  | > 10000 nM | > 10000 nM |  |
| CCN(C(=O)c1cc(C(C)C)c(O)cc1O)c1cccc2cccnc12 [Compound 31c, N-ethyl-2,4-dihydroxy-5-isopropyl-N-(quinolin-8-yl)benzamide] |  | 3700 ± 170 nM | 2400 ± 270 nM |  |

| Structure (SMILES) | GI50 [1, 4] | GI50 [1, 6] | GI50 [3] | also measured |
| --- | --- | --- | --- | --- |
| CC(C)c1cc(C(=O)N(c2ccc3ccn(C)c3c2)C(C)C)c(O)cc1O [Compound 21f, 2,4-dihydroxy-N,5-diisopropyl-N-(1-methyl-1H-indol-6-yl)benzamide] | 840 ± 40 nM |  |  |  |
| CCCN(C(=O)c1cc(C(C)C)c(O)cc1O)c1ccc2ccn(C)c2c1 [Compound 21e, 2,4-dihydroxy-5-isopropyl-N-(1-methyl-1H-indol-6-yl)-N-propylbenzamide] | 1620 ± 120 nM |  |  |  |
| CC(C)c1cc(C(=O)Nc2cnc3c(cnn3C)c2)c(O)cc1O [Compound 26b, 2,4-dihydroxy-5-isopropyl-N-(1-methyl-1H-pyrazolo[3,4-b]pyridin-5-yl)benzamide] |  | > 10000 nM |  | GI50 [2, 5]: > 10000 nM |
| CC(C)c1cc(C(=O)Nc2cccc3ccn(C)c23)c(O)cc1O [Compound 22a, 2,4-dihydroxy-5-isopropyl-N-(1-methyl-1H-indol-7-yl)benzamide] | > 10000 nM |  |  |  |
| CCCN(C(=O)c1cc(C(C)C)c(O)cc1O)c1cnc2c(ccn2C)c1 [Compound 24e, 2,4-dihydroxy-5-isopropyl-N-(1-methyl-1H-pyrrolo[2,3-b]pyridin-5-yl)-N-propylbenzamide] |  | 2100 ± 170 nM |  | GI50 [2, 5]: 3760 ± 230 nM |
| CC(C)c1cc(C(=O)Nc2ccc3[nH]ncc3c2)c(O)cc1O [Compound 25a, 2,4-dihydroxy-N-(1H-indazol-5-yl)-5-isopropylbenzamide] |  | > 10000 nM | > 10000 nM |  |
| CC(C)c1cc(C(=O)N(C)c2cnc3c(cnn3C)c2)c(O)cc1O [Compound 26c, 2,4-dihydroxy-5-isopropyl-N-methyl-N-(1-methyl-1H-pyrazolo[3,4-b]pyridin-5-yl)benzamide] |  | 700 ± 40 nM |  | GI50 [2, 5]: 1150 ± 220 nM |
| CC(C)c1cc(C(=O)N(C)c2ccc3ccn(C)c3c2)c(O)cc1O [Compound 21c, 2,4-dihydroxy-5-isopropyl-N-methyl-N-(1-methyl-1H-indol-6-yl)benzamide] | 100 ± 20 nM |  |  |  |
| CCN(C(=O)c1cc(C(C)C)c(O)cc1O)c1cccc2ccn(C)c12 [Compound 22c, N-ethyl-2,4-dihydroxy-5-isopropyl-N-(1-methyl-1H-indol-7-yl)benzamide] | > 10000 nM |  |  |  |
| CC(C)c1cc(C(=O)N(C)c2ccc3c(cnn3C)c2)c(O)cc1O [Compound 25b, 2,4-dihydroxy-5-isopropyl-N-methyl-N-(1-methyl-1H-indazol-5-yl)benzamide] |  | 110 ± 10 nM | 100 ± 10 nM |  |
| CCN(C(=O)c1cc(C(C)C)c(O)cc1O)c1cnc2c(cnn2C)c1 [Compound 26d, N-ethyl-2,4-dihydroxy-5-isopropyl-N-(1-methyl-1H-pyrazolo[3,4-b]pyridin-5-yl)benzamide] |  | 380 ± 20 nM |  | GI50 [2, 5]: 710 ± 60 nM |
| CCCN(C(=O)c1cc(C(C)C)c(O)cc1O)c1cccc2ccn(C)c12 [Compound 22d, 2,4-dihydroxy-5-isopropyl-N-(1-methyl-1H-indol-7-yl)-N-propylbenzamide] | > 10000 nM |  |  |  |
| CCN(C(=O)c1cc(C(C)C)c(O)cc1O)c1cnc2ccccc2c1 [Compound 28c, N-ethyl-2,4-dihydroxy-5-isopropyl-N-(quinolin-3-yl)benzamide] |  | 280 ± 50 nM |  |  |
| CCCN(C(=O)c1cc(C(C)C)c(O)cc1O)c1cnc2c(cnn2C)c1 [Compound 26e, 2,4-dihydroxy-5-isopropyl-N-(1-methyl-1H-pyrazolo[3,4-b]pyridin-5-yl)-N-propylbenzamide] |  | 4210 ± 220 nM |  | GI50 [2, 5]: 8290 ± 290 nM |
| CC(C)c1cc(C(=O)N(c2cnc3c(cnn3C)c2)C(C)C)c(O)cc1O [Compound 26f, 2,4-dihydroxy-N, 5-diisopropyl-N-(1-methyl-1H-pyrazolo[3,4-b]pyridin-5-yl)benzamide] |  | 3640 ± 50 nM |  | GI50 [2, 5]: 6860 ± 480 nM |
| CC(C)c1cc(C(=O)N(C)c2cccc3ccn(C)c23)c(O)cc1O [Compound 22b, 2,4-dihydroxy-5-isopropyl-N-methyl-N-(1-methyl-1H-indol-7-yl)benzamide] | > 10000 nM |  |  |  |
| CC(C)c1cc(C(=O)N(C)c2ccc3ncccc3c2)c(O)cc1O [Compound 30b, 2,4-dihydroxy-5-isopropyl-N-methyl-N-(quinolin-6-yl)benzamide] |  | > 10000 nM | > 10000 nM |  |
| CCN(C(=O)c1cc(C(C)C)c(O)cc1O)c1ccc2ccn(C)c2c1 [Compound 21d, N-ethyl-2,4-dihydroxy-5-isopropyl-N-(1-methyl-1H-indol-6-yl)benzamide] | 90 ± 10 nM |  |  |  |
